Assay results: paper PMC10747453, “Perturbations in Osteogenic Cell Fate Following Exposure to Constituents Present in Tobacco: A Combinatorial Study” (Toxics, 2023)
Entries after “also recorded” stand apart in the source; their conditions may differ. Structures can show the parent of a compound that is named as a salt. Where two headings read alike, the source gives them in different places.

How the values were obtained:
[1] = hESTo MTT assay, hESC viability; conditions: human
Experimental: (§1) Cells were cultured with concomitant chemical treatment in a double-blind, vehicle-controlled study. […] U2500) were purchased from the indicated companies. […] For liquids, concentrations were calculated from their density. Final dilutions were made in appropriate cell culture medium upon additional sonication of the stock after thawing. Chemical cell treatment started on day 0 of culture/differentiation and continued through day 20 in both H9 hESCs and hFF cells. Medium, including chemical dilutions, were made fresh and changed every other day. All exposures were performed in biological triplicate, each containing technical quintuplicates.
(§2) Viability response to constituent exposure was determined by 3-[4,5-dimethylthiazol-2yl]-2,5-diphenylterazolium bromide (MTT) assay. Cells were incubated with MTT (5 mg/mL) at 37 °C for 2 h. Following incubation, the supernatant was removed and replaced with 0.04 mol/L HCl in isopropanol. The plate was placed on a shaker for 15 min to dissolve aggregates. The optical density of the solution was read at 595 nm (iMark microplate reader; BioRad).
(§3) Half-maximal inhibitory doses of cytotoxicity (IC50) and osteogenic differentiation (ID50) were taken from concentration–response curves generated in GraphPad Prism (9.2., GraphPad Software Inc., San Diego, CA, USA) with the “nonlinear regression” function). A biostatistical prediction model based on linear discriminant functions was employed to classify the test chemical into one out of three embryotoxicity categories (strong, weak, and non-embryotoxic). In double combination analyses, a t-test was performed comparing combination to single constituent ID50. For triple combination analyses, a one-way ANOVA with Dunnett’s multiple comparison test (single constituent vs. combination) using GraphPad Prism was conducted. A p-value below 0.05 was considered significant. Heatmaps for double and triple exposures were generated in GraphPad Prism 9.2. Calcium-to-MTT ratios were calculated in Microsoft Excel and imported to ClustVis to generate a principal-component-analysis-based clustered heatmap.

[2] = test system: human foreskin fibroblasts (hFF-1); experiment: hESTo MTT assay, fibroblast viability; conditions: for IC50: Homo sapiens, HFF-1, read-out: IC50 MTT hFF
Experimental: Human embryonic stem cells of the line H9 (WiCell) were seeded on Matrigel-coated culture plates and cultured in mTeSR1 medium (Stem Cell Technologies, Seattle, WA, USA) at 37 °C with 5% CO2. Approximately every four days, colonies were treated with accutase for 2–4 min at room temperature to dislodge colonies from the plastic and passaged into fresh Matrigel-coated wells. Human foreskin fibroblasts (hFF-1, American Type Culture Collection, Manassas, VA, USA, cat.no. SCRC-1041), were cultured on 0.1% gelatin-coated 6-well plates in Dulbecco’s Modified Eagle Medium (DMEM) with 10% fetal bovine serum, 1% (v/v) non-essential amino acids, 50 U/mL penicillin, and 50 µg/mL streptomycin at 37 °C in a controlled humidified 5% CO2 incubator. Upon 70% confluency, hFFs were passaged at a 1:6 ratio using phosphate-buffered saline (PBS) washes and 2.5% Trypsin/EDTA every two to four days. While in culture, all cells were routinely checked for bacterial, yeast, and microbial contamination using an inverted microscope and tested for mycoplasma using a PCR-based detection kit (abcam, Fremont, CA, USA, ab289834).
(§4) Cells were cultured with concomitant chemical treatment in a double-blind, vehicle-controlled study. […] 241571), and urethane (Sigma Aldrich, cat. no. U2500) were purchased from the indicated companies. Stock solutions were made in DMEM or dimethylsulfoxide, depending on chemical solubility, sonicated when necessary, sterile filtered (0.1 µm), and stored at −20 °C. For liquids, concentrations were calculated from their density. Final dilutions were made in appropriate cell culture medium upon additional sonication of the stock after thawing. Chemical cell treatment started on day 0 of culture/differentiation and continued through day 20 in both H9 hESCs and hFF cells. Medium, including chemical dilutions, were made fresh and changed every other day. All exposures were performed in biological triplicate, each containing technical quintuplicates.
as §2, §3

[3] = test system: osteogenically differentiating H9 hESCs; experiment: hESTo calcium assay, osteogenic differentiation of hESCs; type: cell-based, human; conditions: for IC50: Homo sapiens, 480 h, read-out: ID50 Ca2+ hESC (half-maximal inhibitory concentration of differentiation)
Experimental: Differentiation was induced from hESC cultures through the addition of a control differentiation medium (CDM) composed of DMEM, 15% FBS (Atlanta Biologicals, Flowery Branch, GA, USA), 1% (v/v) non-essential amino acids, 50 U/mL penicillin, 50 µg/mL streptomycin, and 0.1 mM β-mercaptoethanol. Five days after this initial medium change, CDM was supplemented with 1.2 × 10^−7 M 1,25α(OH)2 vitamin D3 (Calbiochem, Burlington, MA, USA), 0.1 mM β-glycerophosphate, and 20.8 µg/mL ascorbic acid.
as §4
Quantification of calcium in the extracellular matrix of the cultures was performed using a calcium assay normalized to protein content. First, cells were lysed with radio-immunoprecipitation buffer (1% NP40, 0.5% sodium deoxycholate, 0.1% sodium dodecyl sulfate in PBS) on day 20 of cellular differentiation. The remaining matrix was dissolved with 1 N HCl and collected. Both lysates were assayed with Arsenazo III (Genzyme), and absorbance was measured at 655 nm (iMark microplate reader; Bio-Rad Laboratories, Hercules, CA, USA). Absorbances were compared to a CaCl2 standard, and total calcium content was normalized to the total protein content of the sample determined by a Lowry assay, measured against a bovine serum albumin standard curve. The Lowry assay was read at 750 nm (iMark microplate reader; Bio-Rad Laboratories) after a 15 min micro-shake incubation. Calculation of final normalized calcium content was performed according to a previously published formula [33].
as §3

[4] = test system: osteogenically differentiating human embryonic stem cells and fibroblasts; experiment: hESTo biostatistical prediction model (embryotoxicity class); conditions: for Embryotoxicity classification by the biostatistical model, in words: hESTo, skeletal differentiation
Excerpt: as §3
Half-maximal inhibitory concentrations for cell viability (IC50 hESC) and differentiation (ID50 Ca^2+ hESC) were established for penicillin G and all-trans retinoic acid from concentration–response curves. The hESTo then compares these two endpoints to the half-maximal inhibitory concentration for cell viability resulting from exposure of fibroblast cells to the same test compound (IC50 MTT hFF) (Figure 3).

[5] = human
Experimental: (C) Table listing IC50 and ID50 values, calculated via GraphPad Prism and expressed as µg/mL, embryotoxicity classes calculated according to Genschow et al. [24], and content per cigarette (cig) or gram tobacco as well as actual and calculated plasma concentrations assuming a plasma volume of 3000 mL. […] ID50 = half-maximal inhibitory concentration of differentiation. IC50 = half-maximal concentration of cytotoxicity. hESC, human embryonic stem cell; hFF, human foreskin fibroblast; ND, not determined from the literature [37, 38, 39, 40, 41, 42, 43, 44, 45, 46, 47, 48, 49].

[6] = test system: other aquatic species; conditions: cited from earlier work
[7] = test system: H9 hESCs; experiment: hESTo MTT assay, hESC viability
Experimental: as §1, §2, §3

[8] = test system: cultured rat embryos; parameters: method as in PMID 8079346; conditions: cited from earlier work
[9] = in vivo; cited from earlier work
[10] = H9 hESC, exposure day 0 through day 20, calcium normalized to protein

SMILES | IC50 at 20 days [1] [µg/mL] | IC50 [2] [µg/mL] | IC50 [3, 10] [µg/mL] | Embryotoxicity classification by the biostatistical model, in words [4] | other results
CC1=C(/C=C/C(C)=C/C=C/C(C)=C/C(=O)O)C(C)(C)CCC1 [All-trans retinoic acid, all-trans retinoic acid, reference compound] | 0.036 | 0.061 | – | – | –
c1ccc2ncccc2c1 [Quinoline, quinoline] | 2.65 ± 0.51 | 59.4 ± 19.1 | 2.27 ± 0.76 | weakly developmentally osteotoxic | Calculated plasma concentration [5]: 0.000045 µg/mL; Median lethal dose [6]: 11 µg/mL
CC1(C)S[C@@H]2[C@H](NC(=O)Cc3ccccc3)C(=O)N2[C@H]1C(=O)O [Penicillin G, penicillin G sodium salt, reference compound] | > 1000 | > 1000 | – | – | Embryotoxicity class ([4]; biostatistical model of Genschow et al. from ID50 hESC, IC50 hESC, IC50 hFF): I
CN1CCC(c2cccnc2)C1 (stereo not drawn) [Isonicotine, isonicotine] | – | – | – | neither chemical classified as developmentally osteotoxic | –
Oc1ccccc1O [Catechol, catechol] | 0.071 ± 0.023 | 9.29 ± 1.71 | – | strongly embryotoxic; also recorded: strongly developmentally osteotoxic | IC50 [3]: 0.258 ± 0.166 µg/mL; hESC differentiation endpoint relative to solvent control ([3]; around 0.882 µg/mL): below 25%; hESC cytotoxicity endpoint relative to solvent control ([7]; around 0.882 µg/mL): below 25%; Concentration above which hFF cell viability changed [2]: above 0.882 µg/mL; Half-maximal lethality [8]: 50 to 100 µM
c1ccc2cc3c(ccc4ccccc43)cc2c1 [Benz[a]anthracene, benz[a]anthracene] | – | – | – | non-embryotoxic | ID50 Ca2+ hESC (half-maximal inhibitory concentration of differentiation) [3, 10]: 239.5 µg/mL; IC50 MTT hESC (half-maximal concentration of cytotoxicity) ([7]; H9 hESC, exposure day 0 through day 20): 337.3 µg/mL; Effect on hFF cell viability, in words ([2]; tested concentration range up to 1000 µg/mL): did not produce a change in cell viability
C=CC=O [Acrolein, acrolein] | – | – | – | strongly developmentally osteotoxic | –
CCOC(N)=O [Urethane, urethane] | > 1000 | > 1000 | > 1000 | non-embryotoxic | –
C=CC(N)=O [Acrylamide, acrylamide] | – | – | – | non-embryotoxic | Effect on H9 hESC differentiation potential / calcification, in words [3]: caused reductions in cell viability as well as calcification but in very high concentration ranges
O=c1ccc2ccccc2o1 [Coumarin, coumarin] | 0.013 | 0.114 | 0.024 ± 0.009 | strongly developmentally osteotoxic | –
CN1C(=O)CC[C@H]1c1cccnc1 [Cotinine, cotinine] | 341 ± 72.9 | 497 ± 139 | 272 ± 82.8 | non-embryotoxic | Approx. plasma concentration [9]: 0.068 to 0.3 µg/mL
c1ccc2c(c1)cc1ccc3cccc4ccc2c1c34 [Benzo[a]pyrene, benzo[a]pyrene] | 52.9 ± 428 | 1020 ± 653 | 2.11 ± 0.65 | – | Calculated plasma concentration [5]: 0.000036 µg/mL
CN1CCC[C@H]1c1cccnc1 [Nicotine, nicotine] | > 1000 | > 1000 | 633 ± 2350 | non-embryotoxic | Effect on H9 hESC differentiation potential / calcification, in words ([3]; all tested concentration ranges): a decrease in calcification was seen in the higher concentrations
c1ccc2c(c1)-c1cccc3c1c-2cc1ccccc13 [Benzo[b]fluoranthene, benzo[b]fluoranthene] | 61 ± 14.8 | 110 ± 76.1 | 25.8 ± 7.24 | neither chemical classified as developmentally osteotoxic | –
CC=O [Acetaldehyde] | – | – | – | strongly developmentally osteotoxic | –
